Assay: molar heat capacity at constant pressure
Settings: Liquid, Flow calorimetry

CCOC(F)(C(F)(F)C(F)(F)C(F)(F)F)C(F)(C(F)(F)F)C(F)(F)F (stereo unspecified) [2-trifluoromethyl-3-ethoxydodecafluorohexane]
molar heat capacity at constant pressure [J/K/mol]
Settings | 100 kPa | 5000 kPa | 10000 kPa | 15000 kPa
248.45 K | 309.34 | 304.79 | 300.64 | 300.23
254.4 K | 329.22 | 325.49 | 320.94 | 319.28
264.24 K | 362.35 | 358.21 | 354.07 | 351.17
273.51 K | 393.82 | 390.92 | 387.19 | 380.98
283.77 K | 428.61 | 428.19 | 426.12 | 414.53
294.36 K | 470.02 | 463.8 | 461.73 | 456.35
304.12 K | 490.31 | 485.34 | 484.1 | 476.23
313.92 K | 531.72 | 528.41 | 526.75 | 516.81
323.65 K | 565.26 | 559.05 | 547.87 | 543.31
333.47 K | 587.21 | 578.1 | 571.47 | 565.68
343.39 K | 629.04 | 620.75 | 612.88 | 606.67
353.38 K | 669.2 | 656.78 | 653.88 | 649.74

O [water]
molar heat capacity at constant pressure [J/K/mol]
Settings | 100 kPa | 5000 kPa | 10000 kPa | 15000 kPa
294.2 K | – | – | 73.7 | –
294.24 K | 74.96 | 74.89 | – | –
294.27 K | – | – | – | 74.67
303.93 K | 75.43 | – | – | –
303.97 K | – | 75.34 | – | 76.01
303.98 K | – | – | 75.05 | –
313.68 K | 76.44 | – | 75.93 | –
313.69 K | – | 76.02 | – | 75.83
323.43 K | 76.28 | 75.84 | 75.47 | 74.96
333.33 K | 75.9 | 75.47 | 75.23 | 75.11
343.28 K | 76.31 | 75.95 | 75.29 | 75.07
353.25 K | – | 75.84 | 75.63 | 75.25
353.26 K | 76.04 | – | – | –

Reference: the NIST ThermoML archive (doi:10.1016/j.fluid.2014.03.017)
